{"source": "patent US20260198499A1", "about": "“PLANT STOMATAL OPENING REGULATOR” (priority 2022, published 2026)", "key": {"[1]": {"test_system": "ABA-related responses in Arabidopsis thaliana", "assay": "ABA-related responses (seed germination, ABA-responsive genes RAB18 and RD29B)", "type": "in vivo"}, "[2]": {"test_system": "stomatal aperture of Commelina benghalensis leaf disks", "assay": "Stomatal opening regulatory action measurement test 1 (IC50 of stomatal aperture, leaf disks)", "type": "cell-based", "settings": "read-out: IC50 (50% inhibitory concentration of stomatal aperture)", "method": "(§1) Part of the stem of Commelina benghalensis was inserted into a planter filled with mixed soil of vermiculite and peat moss, and grown indoors with natural light (room temperature: 25±3° C.) for 2 to 4 weeks. The planter was placed in a dark room and subjected to dark treatment overnight. After the dark treatment, leaf disks with a diameter of 4 mm were cut from fully expanded leaves using a hole punch (Biospy Punch, Kai Medical).\nEach test solution was dispensed into five wells of a 96-well plate at 50 μl/well, and the leaf disks were immersed therein, followed by incubation under light irradiation (50 μmol m^−2s^−1 blue light) for 3 hours. After incubation, stomatal closure was evaluated under observation images (600×) using a stereofluorescence microscope (Leica M205FA). The minor diameter of about 20 stomata (hereinafter referred to as “stomatal aperture”) was measured for each leaf disk."}, "[3]": {"test_system": "stomatal opening of leaf disks", "assay": "Stomatal opening regulatory action measurement test 2 (light- and fusicoccin-induced stomatal opening)", "type": "cell-based, Commelina benghalensis", "settings": "compound 1 100 μM, FIG. 1", "method": "as §1\n[…] After incubation, stomatal closure was evaluated under observation images (600×) using a stereofluorescence microscope (Leica M205FA). The minor diameter of about 20 stomata (hereinafter referred to as “stomatal aperture”) was measured for each leaf disk. Based on the measured values of stomatal aperture at each concentration for each test compound, the 50% inhibitory concentration (IC50) of stomatal aperture was calculated.\nCompound 1 (BITC: benzyl isothiocyanate) (final concentration in the test solution: 100 μM) and abscisic acid (final concentration in the test solution: 20 µM) were used as test compounds. A test solution was also prepared by adding fusicoccin (final concentration: 10 μM) in addition to the test compound. […] The mean and standard deviation (SD) were calculated based on the measured values."}, "[4]": {"test_system": "plasma membrane proton pump (H+-ATPase) phosphorylation in guard cells", "assay": "Immunohistochemical measurement of blue light- and fusicoccin-induced phosphorylation of the plasma membrane proton pump in guard cells", "type": "cell-based, Arabidopsis thaliana", "settings": "compound 1 100 μM, compound 4 20 µM, compound 5 20 μM, FIG. 2; for inhibitory effect on blue light-induced phosphorylation of the plasma membrane proton pump: Arabidopsis guard cells; for inhibitory effect on fusicoccin-induced phosphorylation of the plasma membrane proton pump: fusicoccin 10 μM", "method": "Blue light- and fusicoccin-induced phosphorylation of the plasma membrane proton pump in guard cells from the epidermis of Arabidopsis thaliana was measured immunohistochemically as previously reported (Hayashi et al. (2011) Immunohistochemical detection of blue light-induced phosphorylation of the plasma membrane H^+-ATPase in stomatal guard cells. Plant Cell Physiol. 52:1238-1248). The test compounds used were compound 1 (BITC), compound 4 (m-Bis-BITC), and compound 5 (Tris-BITC). The concentration of compound 1 during action was 100 μM, the concentration of compound 4 during action was 20 µM, the concentration of compound 5 during action was 20 μM, and the concentration of fusicoccin during action was 10 μM."}, "[5]": {"test_system": "chrysanthemums (Chrysanthemum)", "assay": "Drought tolerance test 1 (dehydrated chrysanthemum bouquet)", "type": "in vivo", "settings": "21° C., 90 minutes, relative humidity 35 to 40%, FIG. 6", "method": "(§2) A bouquet of chrysanthemums (Chrysanthemum) was purchased and cultured in a water bottle at 24° C. with a photoperiod of 16 h white light (100 μmol m^−2s^−1)/8 h darkness for 2 days. After the dark period ended, the leaves were immersed in a test solution (0.033% Makupika (spreader, Isk Biosciences K. K.)) containing the test compound (compound 1 (BITC), compound 4 (m-Bis-BITC), or abscisic acid (ABA)) and incubated under white light (100 μmol m^−2s^−1) for 3 hours or incubated with a photoperiod of 16 h light/16 h darkness (light→dark→light) for 48 hours. After incubation, the stomatal aperture was measured in the same manner as in Test Example 1.\nAfter incubation for 3 hours in Test Example 5, the bouquet was dehydrated and incubated at 21° C. for 90 minutes under 10 μmol m^−2s^−1 white light at a relative humidity of 35 to 40%."}, "[6]": {"test_system": "ABA-responsive kinase substrate (AKS)", "assay": "Immunoblot analysis of phosphorylation of ABA-responsive kinase substrate (AKS) in guard cells", "type": "cell-based", "settings": "compound 1 100 μM; Vicia faba guard cells; FIG. 3", "method": "Abscisic acid (ABA)-induced phosphorylation of ABA-responsive kinase substrate (AKS) in guard cells from the epidermis of broad bean (Vicia faba) was measured by immunoblot analysis as previously reported (Takahashi et al. (2007) Protein Phosphorylation and Binding of a 14-3-3 Protein in Vicia Guard Cells in Response to ABA. Plant and Cell Physiology. 48:1182-1191). The test compounds used were compound 1 (BITC) and abscisic acid. The concentration of compound 1 during action was 100 μM, and the concentration of abscisic acid during action was 20 μM."}, "[7]": {"test_system": "stomatal opening in intact leaves of chrysanthemums", "assay": "Stomatal opening regulatory action measurement test 3 (intact chrysanthemum leaves)", "type": "in vivo", "settings": "for inhibitory effect on stomatal opening in intact leaves: chrysanthemum leaves immersed in test solution, white light 3 hours, FIGS. 4 and 5", "method": "as §2"}, "[8]": {"test_system": "Chinese cabbage (Brassica rapa)", "assay": "Drought tolerance test 2 (sprayed Chinese cabbage, water depleted)", "type": "in vivo", "settings": "Chinese cabbage sprayed with 50 μM, 24 hours, 25° C., relative humidity 40 to 50%, FIG. 7", "method": "A test solution (0.033% Makupika (spreader, Isk Biosciences K.K.)) containing compound 4 (m-Bis-BITC) was sprayed onto 4- to 5-week-old Chinese cabbage (Brassica rapa) growing in 110 ml of soil. The concentration of compound 4 in the test solution was 50 μM. Then, the water was depleted, and the plants were cultured for 24 hours in a greenhouse at 25° C. at a relative humidity of 40 to 50% on a sunny day."}, "[9]": {"settings": "Commelina benghalensis leaf disks, 3 hours under 50 μmol m−2s−1 blue light"}}, "note": "Like-named read-outs stand apart in the source and are kept apart here.", "data": [{"smiles": "S=C=NCc1ccccc1", "note": "[Compound 1, benzyl isothiocyanate]", "values": [{"measurement": "effect on ABA-related responses, including inhibition of seed germination and induction of ABA-responsive genes (RAB18 and RD29B)", "setting": "[1]", "value": "no effect"}, {"measurement": "IC50", "setting": "[2]; [9]", "value": 29.1, "unit": "µM"}, {"measurement": "inhibitory effect on stomatal opening compared with abscisic acid", "setting": "[3]; abscisic acid 20 µM, 3 hours red and blue light", "value": "more potent inhibitory effect on stomatal opening than abscisic acid"}, {"measurement": "inhibitory effect on stomatal opening induced by fusicoccin", "setting": "[3]; fusicoccin 10 μM, 3 hours", "value": "exhibited an inhibitory effect on stomatal opening induced by fusicoccin"}, {"measurement": "inhibitory effect on blue light-induced phosphorylation of the plasma membrane proton pump", "setting": "[4]", "value": "inhibitory effects"}, {"measurement": "inhibitory effect on fusicoccin-induced phosphorylation of the plasma membrane proton pump", "setting": "[4]", "value": "inhibitory effects"}, {"measurement": "drought tolerance and wilting", "setting": "[5]", "value": "could improve drought tolerance and suppress wilting"}, {"measurement": "induction of phosphorylation of the ABA-responsive kinase substrate", "setting": "[6]", "value": "did not induce phosphorylation"}, {"measurement": "inhibitory effect on stomatal opening in intact leaves", "setting": "[7]", "value": "inhibitory effect on stomatal opening even in intact leaves"}]}, {"smiles": "S=C=NCc1cccs1", "note": "[Compound 2]", "values": [{"measurement": "IC50", "setting": "[2]; Commelina benghalensis, 3 h", "value": 20.6, "unit": "µM"}]}, {"smiles": "S=C=NCc1cccc(CN=C=S)c1", "note": "[Compound 4]", "values": [{"measurement": "IC50", "setting": "[2]; [9]", "value": 1.7, "unit": "µM"}, {"measurement": "inhibitory effect on blue light-induced phosphorylation of the plasma membrane proton pump", "setting": "[4]", "value": "inhibitory effects"}, {"measurement": "inhibitory effect on fusicoccin-induced phosphorylation of the plasma membrane proton pump", "setting": "[4]", "value": "inhibitory effects"}, {"measurement": "drought tolerance and wilting", "setting": "[5]", "value": "could improve drought tolerance and suppress wilting"}, {"measurement": "drought tolerance and wilting", "setting": "[8]", "value": "could improve drought tolerance and suppress wilting over a long period of time"}, {"measurement": "inhibitory effect on stomatal opening in intact leaves", "setting": "[7]", "value": "inhibitory effect on stomatal opening even in intact leaves"}, {"measurement": "persistence of the stomatal opening inhibitory effect", "setting": "[7]; chrysanthemum leaves, 48 hours incubation, m-Bis-BITC 50 µM, FIG. 5", "value": "excellent in the persistence"}]}, {"smiles": "S=C=NCc1cc(CN=C=S)cc(CN=C=S)c1", "note": "[Compound 5, 1,3,5-tris(isothiocyanatomethyl)benzene]", "values": [{"measurement": "IC50", "setting": "[2]; Commelina benghalensis, 3 h", "value": 0.44, "unit": "µM"}, {"measurement": "inhibitory effect on blue light-induced phosphorylation of the plasma membrane proton pump", "setting": "[4]", "value": "inhibitory effects"}, {"measurement": "inhibitory effect on fusicoccin-induced phosphorylation of the plasma membrane proton pump", "setting": "[4]", "value": "inhibitory effects"}]}, {"smiles": "S=C=NC[C@H]1CC[C@H](CN=C=S)CC1", "note": "[Compound 27, trans-1,4-bis(isothiocyanatomethyl)cyclohexane]", "values": [{"measurement": "IC50", "setting": "[2]; Commelina benghalensis, 3 h", "value": 11.4, "unit": "µM"}]}]}
